Experimental findings from patent publication US12527752B2, “Composition based on gellan gum and phenylephrine, production method and use as an ophthalmic product” (UNITHER PHARMACEUTICALS, priority 2019, dated 2026) are described below.

The test system of the data set is human corneal epithelial (HCE) cell line. Briefly: Cytotoxicity neutral red test. In kind it is cell-based. Particulars: HCE cells, 30 minutes incubation. On the procedure: A human corneal epithelial (HCE) cell line was cultured in Dulbecco's essential medium (Eurobio, Les Ulis, France) supplemented with 10% fetal calf serum (Eurobio), 1% glutamine (Eurobio) and 1% penicillin and streptomycin (Eurobio). Cultures were maintained at 37° C. in 5% CO2 in a humidified incubator.
All wells were seeded with the same number of cells (9×10^4 cells/mL solution). After 24 hours, the cells reached about 70% to 80% confluency. The cells were washed with PBS and incubated for 30 minutes with 100 μL of gels in situ. […] The cells were then washed with PBS. A neutral red test was performed immediately after incubation and after 24 hours of recovery in the culture medium. The experiments were performed in triplicate.
The neutral red test (Fluka, Buchs, Switzerland) is a cell viability test based on the ability of viable cells to incorporate neutral red, which is a weak cationic dye that readily penetrates cell membranes by nonionic diffusion and accumulates in lysosomes. […] The integrity of the lysosomal membrane is closely related to cell viability and is assessed by neutral red fluorescence (excitation at 535 nm; emission at 600 nm). […] The dye was then released from the cells using 200 μL of lysis solution per well (1% acetic acid, 50% ethanol and 49% H2O), then the fluorescence was measured using a fluorometer for microplates (Safire; Tecan, Lyon, France).

Turning to `CNC[C@H](O)c1cccc(O)c1` [PHE, phenylephrine], the “effect on cell viability” value is listed as “significant cytotoxicity”.
